Read-outs that look alike come from different tables or passages of the source.
Columns and labels:
PKC isoenzyme α = target: T1, PKC isoenzyme α (Homo sapiens, UniProt P17252); assay: Protein kinase C inhibition assay, PKC isoenzyme α; type: biochemical; conditions: read-out: IC50 PKC α
T1 construct: made in house; host or cells: baculovirus-insect cell expression system
How it was run: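 Baculovirus-expressed enzyme with histone H1 or myelin basic protein as substrate, at near-physiological pH, salt and cofactor levels, with suboptimal co-sonicated phosphatidylserine/DAG vesicles. Compounds were tested at 1, 10, 50 and 150 μM final; reactions ran 10 min, were TCA-stopped, and filter-bound ³²P was counted. IC50 is relative to control activity.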

human neutrophils = assay: Neutrophil Superoxide Anion (O2) Release Assay, PMA-stimulated; type: cell-based; conditions: PMA-stimulated human neutrophils, read-out: Neutrophil Superoxide Release IC50
Excerpt: Phorbol-12,13-myristate acetate (PMA) stimulates O2 production in human neutrophils which in turn reduces cytochrome C. Reducing cytochrome C increases absorbance and the change in optical density (OD) is proportional to the amount of O2 produced by PMA stimulation. Inhibition is expressed as an IC50 value and is the amount of test compound that will inhibit fifty percent of the PMA-stimulated respiratory outburst, i.e. O2^31 production (Lherer et al. (1981) J. Clinical lnvest. 68:1314; Roberts et al. (1982) J. Immunological Methods 49:193).
Human donor blood in 0.38% Sodium Citrate was centrifuged for 10 minutes at 160 ×g at room temperature. Platelet-rich plasma was removed leaving the buffy coat and the red cell-enriched fraction. Saline with 0.38% Sodium Citrate was added to this fraction up to the original blood volume. The enriched blood sample was diluted 1:1 (v:v) with 3% dextran T500 (Pharmacia) in normal saline and placed in a 60 cc syringe, inverted over a beaker and allowed to settle 30 minutes at room temperature.
Leukocyte-enriched plasma was removed from the syringe, placed into 50 ml polypropylene conical centrifuge tubes and underlaid with 15-20 ml Lymphocyte Separation Medium (LSM Organon Technica). The tubes were centrifuged for 40 minutes at 500×g at room temperature. The plasma, buffy coat and LSM were aspirated off the pellets which contained red blood cells and neutrophils.
The pellets were vortexed and 10 ml ice-cold 0.2% NaCl was added to lyse the red blood cells while vortexing again for 10 seconds. Ice-cold 1.6% NaCl was added while vortexing for 10 seconds. The cells were combined from multiple tubes, centrifuged 10 min at 400×g at 4° C. This red cell lysis was repeated and the resulting neutrophil pellet was washed once in Reaction HBSS (GIBCO, HBSS with Ca^++ and Mg^++,.238% HEPES, 0.1% dextrose, 0.1% RIA grade bovine serum albumin, PH 7.2). The cells were resuspended in 1/5 the original blood volume with Reaction HBSS, counted and adjusted to 4.0×10^6 cells/ml at 4° C.
Duplicate samples of neutrophils were tested in 12×75 mm polypropylene tubes containing 0.25 ml of the neutrophil suspension. Cytochrome C mix (0.25 ml, 6.0 mg/ml cytochrome C type IV (Sigma) plus 1200 U/ml bovine liver catalase (Sigma) in Reaction HBSS described above) was added. PMA was added at 2×the final concentration in 0.5 ml of Reaction HBSS. PMA final test concentration were 0.0, 0.3, 9.0, 27.0, and 81.0 ng/ml. The tubes were vortexed and incubated for 10 minutes at 37° C. with shaking. After chilling for 5 minutes at 4° C. and centrifuging for 10 minutes at 4° C., 550×g, 0.5 ml of supernatant was removed from each tube. Normal saline (0.5 ml) was added to each 0.5 ml sample of supernatant and the absorbance of each sample was read at 550 nm on a spectrophotometer (Shimadzu). The PMA concentration which gives nearly maximal stimulation of superoxide release was determined.
The test samples of neutrophils were prepared as in the PMA dose response through addition of cytochrome C mix. Then 0.4 ml of Reaction HBSS as a control or test agent at 2.5×final test concentration was added and the tubes were vortexed and incubated for 30 minutes at 37° C. with shaking. PMA (0.1 ml) was added at a 10× concentration of the final concentration determined above. The samples were incubated for 10 minutes at 37° C. with shaking, chilled for 5 minutes at 4° C., and then centrifuged for 5 minutes at 550×g at 4° C. The supernatant (0.5 ml) was diluted with 0.5 ml normal saline as above and the absorbance was then determined at 550 nm. The percent change was calculated as follows: [formula] D-sphingosine (Sigma) used as reference standard.
Human neutrophils were first isolated according to Lherer et al. ((1981) J. Clinical Invest. 68:1314) and then tested for stimulation of superoxide anion release with phorbol--12,13-myristate acetate (PMA) in a dose-dependent manner. […]

[1] = target: cAMP dependent protein kinase (PKA); assay: cAMP Dependent Protein Kinase (PKA) Assay; type: biochemical; conditions: for IC50: catalytic subunit of PKA; for effect on PKA activity: result in words
How it was run: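 PKA catalytic subunit preincubated with test compound added from DMSO at final 30 and 150 μM; reaction started with ^32P-ATP, run 10 min, stopped with 25% TCA plus BSA. Phosphorylated protein collected by filtration and counted by beta scintillation.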

IC50 (PKC isoenzyme α)	IC50 (human neutrophils)	IC50 [1]	effect on PKA activity [1]	IC50 (human neutrophils; Homo sapiens, Neutrophil)	Compound
106 µM	3.33 µM	> 150 µM	did not effect on PKA activity	–	COc1ccc(NS(=O)(=O)c2ccc(N=C3C=C(Nc4ccc(S(=O)(=O)Nc5ccc(OC)nn5)cc4)C(=O)c4ccccc43)cc2)nn1 [Compound 6j]
17 µM	–	55 µM	–	8.38 µM	Cc1nnc(NS(=O)(=O)c2ccc(N=C3C=C(Nc4ccc(S(=O)(=O)Nc5nnc(C)s5)cc4)C(=O)c4ccccc43)cc2)s1 [Compound 3e]
67 µM	–	> 150 µM	did not effect on PKA activity	1.74 µM	COc1ccc(NS(=O)(=O)c2ccc(N=C3C=C(Nc4ccc(S(=O)(=O)Nc5ccc(OC)nn5)cc4)C(=O)c4ccccc43)cc2)nn1 [Compound 3j]
108 µM	2.4 µM	> 150 µM	did not effect on PKA activity	–	COc1cnc(NS(=O)(=O)c2ccc(N=C3C=C(Nc4ccc(S(=O)(=O)Nc5ncc(OC)cn5)cc4)C(=O)c4ccccc43)cc2)nc1 [Compound 6h]
14 µM	0.11 µM	> 150 µM	did not effect on PKA activity	–	O=C1C(Nc2ccc(S(=O)(=O)Nc3ccccn3)cc2)=CC(=Nc2ccc(S(=O)(=O)Nc3ccccn3)cc2)c2ccccc21 [Compound 6i]
22 µM	0.06 µM	–	did not effect on PKA activity	–	Cc1cc(C)nc(NS(=O)(=O)c2cc(N=C3C=C(Nc4ccc(C)c(S(=O)(=O)Nc5cc(C)cc(C)n5)c4)C(=O)c4ccccc43)ccc2C)c1 [Compound 6ag]
7 µM	–	> 150 µM	did not effect on PKA activity	0.04 µM	Cc1cc(C)nc(NS(=O)(=O)c2cc(N=C3C=C(Nc4ccc(C)c(S(=O)(=O)Nc5cc(C)cc(C)n5)c4)C(=O)c4ccccc43)ccc2C)c1 [Compound 3ag]
27 µM	0.9 µM	98 µM	–	–	O=C1C(Nc2ccc(S(=O)(=O)Nc3ccc(Cl)nn3)cc2)=CC(=Nc2ccc(S(=O)(=O)Nc3ccc(Cl)nn3)cc2)c2ccccc21 [Compound 3l]
109 µM	4.78 µM	45 µM	–	–	Cc1nnc(NS(=O)(=O)c2ccc(N=C3C=C(Nc4ccc(S(=O)(=O)Nc5nnc(C)s5)cc4)C(=O)c4ccccc43)cc2)s1 [Compound 6e]
32 µM	2.75 µM	> 150 µM	did not effect on PKA activity	–	COc1cc(NS(=O)(=O)c2ccc(N=C3C=C(Nc4ccc(S(=O)(=O)Nc5cc(OC)nc(OC)n5)cc4)C(=O)c4ccccc43)cc2)nc(OC)n1 [Compound 3g]
